# Test results: US7786141B2 (Vertex Pharmaceuticals Incorporated, priority 2004, dated 2010)
# Where two headings read alike, the source gives them in different places.
# Legend:
# M1 muscarinic receptor = target: T1, M1 muscarinic receptor (Homo sapiens, UniProt P11229); test: Functional mobilization of intracellular calcium (FLIPR) in M1-CHO cells; type: cell-based
# T1 construct: expressed in transfected cells; host or cells: CHO (M1-CHO)
# T1 sequence (P11229 1-460): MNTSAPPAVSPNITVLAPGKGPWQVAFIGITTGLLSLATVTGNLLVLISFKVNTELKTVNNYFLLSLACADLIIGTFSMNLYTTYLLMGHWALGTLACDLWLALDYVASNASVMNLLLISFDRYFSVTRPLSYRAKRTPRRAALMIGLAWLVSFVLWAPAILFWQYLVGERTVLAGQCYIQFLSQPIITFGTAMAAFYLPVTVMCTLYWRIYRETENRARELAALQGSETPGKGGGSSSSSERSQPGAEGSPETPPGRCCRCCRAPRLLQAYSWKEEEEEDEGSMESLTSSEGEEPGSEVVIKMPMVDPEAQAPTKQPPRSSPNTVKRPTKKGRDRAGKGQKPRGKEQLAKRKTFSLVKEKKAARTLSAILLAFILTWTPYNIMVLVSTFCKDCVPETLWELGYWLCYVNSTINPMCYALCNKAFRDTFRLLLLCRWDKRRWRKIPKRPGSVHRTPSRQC
# In short: (§1)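 Measured via Fluo-3 fluorescence on a FLIPR, CHO cells with either muscarinic subtype received compound in 0.5% DMSO. Antagonism was assessed after 15 min pre-incubation followed by carbachol at each subtype's EC80; agonism from compound addition alone.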
# M4 muscarinic receptor = target: T2, M4 muscarinic receptor (Homo sapiens, UniProt P08173); test: Functional mobilization of intracellular calcium (FLIPR) in M4-CHO cells; type: cell-based
# T2 construct: expressed in transfected cells; host or cells: CHO (M4-CHO)
# T2 sequence (P08173 1-479): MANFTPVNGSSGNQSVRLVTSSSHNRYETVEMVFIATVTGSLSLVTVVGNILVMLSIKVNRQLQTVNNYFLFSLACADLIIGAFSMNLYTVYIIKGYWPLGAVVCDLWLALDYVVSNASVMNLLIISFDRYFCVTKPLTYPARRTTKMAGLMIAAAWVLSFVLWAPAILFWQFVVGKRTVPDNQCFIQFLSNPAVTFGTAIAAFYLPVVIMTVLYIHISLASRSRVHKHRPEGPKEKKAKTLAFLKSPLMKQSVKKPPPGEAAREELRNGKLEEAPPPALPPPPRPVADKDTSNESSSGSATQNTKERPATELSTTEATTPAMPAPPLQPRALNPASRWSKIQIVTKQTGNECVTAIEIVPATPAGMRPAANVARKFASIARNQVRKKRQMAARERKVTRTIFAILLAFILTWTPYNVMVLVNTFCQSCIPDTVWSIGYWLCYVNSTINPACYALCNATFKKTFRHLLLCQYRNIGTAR
# In short: as §1
# [1] = Table 4, 100% efficacy is the maximum response obtained with the Carbachol control
# [2] = Table 4, modulating M1 receptor
# [3] = Table 4, modulating M4 receptor
# [4] = Table 4, M1 receptor, calcium mobilization (FLIPR)
# [5] = Table 4, M4 receptor, calcium mobilization (FLIPR)
# [6] = M1 receptor, calcium mobilization
# [7] = M1 receptor, calcium mobilization, read-out: M1 Efficacy
# [8] = M4 receptor, calcium mobilization
# [9] = M4 receptor, calcium mobilization, read-out: M4 Efficacy
compound,measurement,setting,value
CN(C)C(=O)N1CC2(CCN(C[C@@H]3CCN(C(=O)OCC(F)F)C3)CC2)c2cc(F)ccc21 [compound 625],Emax,M1 muscarinic receptor; [1],25 to 100%
same,M1 Activity,M1 muscarinic receptor; [2],xxx (activity was measured to be less than 2.0 μM)
same,Emax,M4 muscarinic receptor; [1],> 100%
same,M4 Activity,M4 muscarinic receptor; [3],xxx (activity was measured to be less than 2.0 μM)
CN(C)C(=O)N1CC2(CCN(C3CCN(C(=O)c4ccnnc4)CC3)CC2)c2cc(F)ccc21 [compound 988],Emax,M1 muscarinic receptor; [1],25 to 100%
same,M1 Activity,M1 muscarinic receptor; [4],xxx (activity was measured to be less than 2.0 μM)
same,Emax,M4 muscarinic receptor; [1],25 to 100%
same,M4 Activity,M4 muscarinic receptor; [5],xxx (activity was measured to be less than 2.0 μM)
O=C(N[C@H]1CC2(CCN(CCC3CC4CC[C@@H]3C4)CC2)c2ccccc21)N1CCCC1 (stereo partly drawn) [compound 726],Emax,M1 muscarinic receptor; [1],< 25%
same,M1 Activity,M1 muscarinic receptor; [2],x (activity was measured to be greater than 5.0 μM)
same,Emax,M4 muscarinic receptor; [1],< 25%
same,M4 Activity,M4 muscarinic receptor; [3],x (activity was measured to be greater than 5.0 μM)
CC#CC(C)OC(=O)N1CCC(N2CCC3(CC2)CN(C(C)=O)c2ccccc23)CC1 (stereo not drawn) [compound 589],Emax,M1 muscarinic receptor; [1],< 25%
same,M1 Activity,M1 muscarinic receptor; [2],x (activity was measured to be greater than 5.0 μM)
same,Emax,M4 muscarinic receptor; [1],< 25%
same,M4 Activity,M4 muscarinic receptor; [3],x (activity was measured to be greater than 5.0 μM)
CCCOC(=O)N1CC[C@H](CN2CCC3(CC2)CN(C(C)=O)c2ccccc23)C1 [compound 518],Emax,M1 muscarinic receptor; [1],< 25%
same,M1 Activity,M1 muscarinic receptor; [2],x (activity was measured to be greater than 5.0 μM)
same,Emax,M4 muscarinic receptor; [1],< 25%
same,M4 Activity,M4 muscarinic receptor; [3],x (activity was measured to be greater than 5.0 μM)
CCOC(=O)N1CCC(N2CCC3(CC2)CN(C(=O)N2CCCC2)c2ccc(F)cc23)CC1 [compound 22],M1 Activity,M1 muscarinic receptor; [6],xxx (activity was measured to be less than 0.1 μM)
same,Emax,M1 muscarinic receptor; [7],65 to 85%
same,M4 Activity,M4 muscarinic receptor; [8],x (activity was measured to be greater than 1.0 μM)
same,Emax,M4 muscarinic receptor; [9],< 65%
CCOC(=O)N1CCC(N2CCC3(CC2)C(=O)N(C)c2ccccc23)CC1 [compound 31],M1 Activity,M1 muscarinic receptor; [6],xxx (activity was measured to be less than 0.1 μM)
same,Emax,M1 muscarinic receptor; [7],> 85%
same,M4 Activity,M4 muscarinic receptor; [8],xxx (activity was measured to be less than 0.1 μM)
same,Emax,M4 muscarinic receptor; [9],65 to 85%
CCOC(=O)N1CCC(N2CCC3(CC2)CN(c2ccc(F)cc2)c2ccc(F)cc23)CC1 [compound 808],Emax,M1 muscarinic receptor; [1],25 to 100%
same,M1 Activity,M1 muscarinic receptor; [4],xxx (activity was measured to be less than 2.0 μM)
same,Emax,M4 muscarinic receptor; [1],25 to 100%
same,M4 Activity,M4 muscarinic receptor; [5],xxx (activity was measured to be less than 2.0 μM)
COC(=O)NC1CC2(CCN(C3C[C@@H]4CC[C@@H]3C4)CC2)c2ccccc21 (stereo partly drawn) [compound 586],Emax,M1 muscarinic receptor; [1],25 to 100%
same,M1 Activity,M1 muscarinic receptor; [2],xxx (activity was measured to be less than 2.0 μM)
same,Emax,M4 muscarinic receptor; [1],25 to 100%
same,M4 Activity,M4 muscarinic receptor; [3],xxx (activity was measured to be less than 2.0 μM)
CC(=O)N[C@H]1CC2(CCN(C3CCOCC3)CC2)c2ccccc21 [compound 206],M1 Activity,M1 muscarinic receptor; [6],xxx (activity was measured to be less than 0.1 μM)
same,Emax,M1 muscarinic receptor; [7],65 to 85%
same,M4 Activity,M4 muscarinic receptor; [8],x (activity was measured to be greater than 1.0 μM)
same,Emax,M4 muscarinic receptor; [9],< 65%
COC(=O)N1CCC(N2CCC3(CC2)CN(C(C)=O)c2ccc(C)cc23)CC1 [compound 312],M1 Activity,M1 muscarinic receptor; [6],x (activity was measured to be greater than 1.0 μM)
same,Emax,M1 muscarinic receptor; [7],< 65%
same,M4 Activity,M4 muscarinic receptor; [8],x (activity was measured to be greater than 1.0 μM)
same,Emax,M4 muscarinic receptor; [9],< 65%
CC(=O)N[C@H]1CC2(CCN(C3CCC(C(C)C)CC3)CC2)c2ccccc21 (stereo partly drawn) [compound 759],Emax,M1 muscarinic receptor; [1],< 25%
same,M1 Activity,M1 muscarinic receptor; [2],x (activity was measured to be greater than 5.0 μM)
same,Emax,M4 muscarinic receptor; [1],< 25%
same,M4 Activity,M4 muscarinic receptor; [3],x (activity was measured to be greater than 5.0 μM)
Cc1ccc2c(c1)C1(CCN(C3CC4CCC3C4)CC1)CN2C(=O)c1ccno1 (stereo not drawn) [compound 292],M1 Activity,M1 muscarinic receptor; [6],xx (activity was measured to be between 0.1 μM and 1.0 μM)
same,Emax,M1 muscarinic receptor; [7],65 to 85%
same,M4 Activity,M4 muscarinic receptor; [8],x (activity was measured to be greater than 1.0 μM)
same,Emax,M4 muscarinic receptor; [9],65 to 85%
O=C(OCC1CCCO1)N1C2CCC1CC(N1CCC3(CC1)COc1ccc(F)cc13)C2 (stereo not drawn) [compound 363],M1 Activity,M1 muscarinic receptor; [6],xx (activity was measured to be between 0.1 μM and 1.0 μM)
same,Emax,M1 muscarinic receptor; [7],< 65%
same,M4 Activity,M4 muscarinic receptor; [8],x (activity was measured to be greater than 1.0 μM)
same,Emax,M4 muscarinic receptor; [9],< 65%
CCOC(=O)N1CCC(N2CCC3(CC2)CN(C(C)=O)c2ccc(OC)cc23)CC1 [compound 340],M1 Activity,M1 muscarinic receptor; [6],xx (activity was measured to be between 0.1 μM and 1.0 μM)
same,Emax,M1 muscarinic receptor; [7],< 65%
same,M4 Activity,M4 muscarinic receptor; [8],x (activity was measured to be greater than 1.0 μM)
same,Emax,M4 muscarinic receptor; [9],< 65%
CC(=O)N1CC2(CCN(CC3CCN(C(=O)O[C@@H]4CCOC4)CC3)CC2)c2cc(C)ccc21 [compound 550],Emax,M1 muscarinic receptor; [1],< 25%
same,M1 Activity,M1 muscarinic receptor; [2],x (activity was measured to be greater than 5.0 μM)
same,Emax,M4 muscarinic receptor; [1],< 25%
same,M4 Activity,M4 muscarinic receptor; [3],x (activity was measured to be greater than 5.0 μM)
CC(=O)N[C@H]1CC2(CCN(C3CC4CCC(C4)C3)CC2)c2ccccc21 (stereo partly drawn) [compound 337],M1 Activity,M1 muscarinic receptor; [6],x (activity was measured to be greater than 1.0 μM)
same,Emax,M1 muscarinic receptor; [7],< 65%
same,M4 Activity,M4 muscarinic receptor; [8],x (activity was measured to be greater than 1.0 μM)
same,Emax,M4 muscarinic receptor; [9],< 65%
CCOC(=O)N1CCC(N2CCC3(CC2)CN(C(C)=O)c2ccc(OC(F)(F)F)cc23)CC1 [compound 225],M1 Activity,M1 muscarinic receptor; [6],x (activity was measured to be greater than 1.0 μM)
same,Emax,M1 muscarinic receptor; [7],< 65%
same,M4 Activity,M4 muscarinic receptor; [8],x (activity was measured to be greater than 1.0 μM)
same,Emax,M4 muscarinic receptor; [9],< 65%
COc1cc2c(cc1OC)C1(CCN(CC3CCCCC3)CC1)C[C@@H]2NC(C)=O [compound 511],Emax,M1 muscarinic receptor; [1],< 25%
same,M1 Activity,M1 muscarinic receptor; [2],x (activity was measured to be greater than 5.0 μM)
same,Emax,M4 muscarinic receptor; [1],< 25%
same,M4 Activity,M4 muscarinic receptor; [3],x (activity was measured to be greater than 5.0 μM)
COC(=O)N1CC[C@@H](CN2CCC3(CC2)CN(C(=O)N(C)C)c2ccc(F)cc23)C1 [compound 540],Emax,M1 muscarinic receptor; [1],25 to 100%
same,M1 Activity,M1 muscarinic receptor; [2],xxx (activity was measured to be less than 2.0 μM)
same,Emax,M4 muscarinic receptor; [1],25 to 100%
same,M4 Activity,M4 muscarinic receptor; [3],xxx (activity was measured to be less than 2.0 μM)
CN(C)C(=O)N1CC2(CCN(C3CCN(C(=O)c4cccs4)CC3)CC2)c2cc(F)ccc21 [compound 649],Emax,M1 muscarinic receptor; [1],25 to 100%
same,M1 Activity,M1 muscarinic receptor; [2],xxx (activity was measured to be less than 2.0 μM)
same,Emax,M4 muscarinic receptor; [1],< 25%
same,M4 Activity,M4 muscarinic receptor; [3],xxx (activity was measured to be less than 2.0 μM)
CC(=O)N1CC2(CCN(C3CCCCCCC3)CC2)c2cc(F)ccc21 [compound 248],M1 Activity,M1 muscarinic receptor; [6],xx (activity was measured to be between 0.1 μM and 1.0 μM)
same,Emax,M1 muscarinic receptor; [7],65 to 85%
same,M4 Activity,M4 muscarinic receptor; [8],x (activity was measured to be greater than 1.0 μM)
same,Emax,M4 muscarinic receptor; [9],< 65%
O=C(O[C@@H]1CCOC1)N1CC2(CCN(C3CC4CCC(C3)N4C(=O)O[C@H]3CCOC3)CC2)c2cc(F)ccc21 (stereo partly drawn) [compound 198],M1 Activity,M1 muscarinic receptor; [6],xx (activity was measured to be between 0.1 μM and 1.0 μM)
same,Emax,M1 muscarinic receptor; [7],65 to 85%
same,M4 Activity,M4 muscarinic receptor; [8],x (activity was measured to be greater than 1.0 μM)
same,Emax,M4 muscarinic receptor; [9],< 65%
CC(=O)CN1CC2(CCN([C@@H]3C[C@H]4CCC3C4)CC2)c2cc(C)ccc21 [compound 878],Emax,M1 muscarinic receptor; [1],25 to 100%
same,M1 Activity,M1 muscarinic receptor; [4],xxx (activity was measured to be less than 2.0 μM)
same,Emax,M4 muscarinic receptor; [1],25 to 100%
same,M4 Activity,M4 muscarinic receptor; [5],xxx (activity was measured to be less than 2.0 μM)
COC(=O)N1CC[C@H](CN2CCC3(CC2)CN(C(=O)N(C)C)c2ccc(F)cc23)C1 [compound 807],Emax,M1 muscarinic receptor; [1],25 to 100%
same,M1 Activity,M1 muscarinic receptor; [4],xxx (activity was measured to be less than 2.0 μM)
same,Emax,M4 muscarinic receptor; [1],25 to 100%
same,M4 Activity,M4 muscarinic receptor; [5],xxx (activity was measured to be less than 2.0 μM)
CC(C)C(=O)N[C@@H]1CC2(CCN(C[C@H]3C[C@H]4CC[C@H]3C4)CC2)c2ccccc21 [compound 432],Emax,M1 muscarinic receptor; [1],< 25%
same,M1 Activity,M1 muscarinic receptor; [2],x (activity was measured to be greater than 5.0 μM)
same,Emax,M4 muscarinic receptor; [1],< 25%
same,M4 Activity,M4 muscarinic receptor; [3],x (activity was measured to be greater than 5.0 μM)
CC(=O)N1CC2(CCN(C3CCOCC3)CC2)c2cc(F)ccc21 [compound 268],M1 Activity,M1 muscarinic receptor; [6],x (activity was measured to be greater than 1.0 μM)
same,Emax,M1 muscarinic receptor; [7],< 65%
same,M4 Activity,M4 muscarinic receptor; [8],x (activity was measured to be greater than 1.0 μM)
same,Emax,M4 muscarinic receptor; [9],< 65%
